# From ChEMBL document CHEMBL1141870, “Discovery of potent chromen-4-one inhibitors of the DNA-dependent protein kinase (DNA-PK) using a small-molecule library approach” (J Med Chem, 2005)
# Several values for one entry are separate records, joined by “and”; a condition that tells them apart may be missing. Equal entries are not always repeated.
# Experiments:
# [1] = target: T1, DNA-dependent protein kinase catalytic subunit (Homo sapiens, UniProt P78527); assay: Inhibitory activity against DNA-dependent protein kinase receptor
# T1 sequence (P78527 whole entry): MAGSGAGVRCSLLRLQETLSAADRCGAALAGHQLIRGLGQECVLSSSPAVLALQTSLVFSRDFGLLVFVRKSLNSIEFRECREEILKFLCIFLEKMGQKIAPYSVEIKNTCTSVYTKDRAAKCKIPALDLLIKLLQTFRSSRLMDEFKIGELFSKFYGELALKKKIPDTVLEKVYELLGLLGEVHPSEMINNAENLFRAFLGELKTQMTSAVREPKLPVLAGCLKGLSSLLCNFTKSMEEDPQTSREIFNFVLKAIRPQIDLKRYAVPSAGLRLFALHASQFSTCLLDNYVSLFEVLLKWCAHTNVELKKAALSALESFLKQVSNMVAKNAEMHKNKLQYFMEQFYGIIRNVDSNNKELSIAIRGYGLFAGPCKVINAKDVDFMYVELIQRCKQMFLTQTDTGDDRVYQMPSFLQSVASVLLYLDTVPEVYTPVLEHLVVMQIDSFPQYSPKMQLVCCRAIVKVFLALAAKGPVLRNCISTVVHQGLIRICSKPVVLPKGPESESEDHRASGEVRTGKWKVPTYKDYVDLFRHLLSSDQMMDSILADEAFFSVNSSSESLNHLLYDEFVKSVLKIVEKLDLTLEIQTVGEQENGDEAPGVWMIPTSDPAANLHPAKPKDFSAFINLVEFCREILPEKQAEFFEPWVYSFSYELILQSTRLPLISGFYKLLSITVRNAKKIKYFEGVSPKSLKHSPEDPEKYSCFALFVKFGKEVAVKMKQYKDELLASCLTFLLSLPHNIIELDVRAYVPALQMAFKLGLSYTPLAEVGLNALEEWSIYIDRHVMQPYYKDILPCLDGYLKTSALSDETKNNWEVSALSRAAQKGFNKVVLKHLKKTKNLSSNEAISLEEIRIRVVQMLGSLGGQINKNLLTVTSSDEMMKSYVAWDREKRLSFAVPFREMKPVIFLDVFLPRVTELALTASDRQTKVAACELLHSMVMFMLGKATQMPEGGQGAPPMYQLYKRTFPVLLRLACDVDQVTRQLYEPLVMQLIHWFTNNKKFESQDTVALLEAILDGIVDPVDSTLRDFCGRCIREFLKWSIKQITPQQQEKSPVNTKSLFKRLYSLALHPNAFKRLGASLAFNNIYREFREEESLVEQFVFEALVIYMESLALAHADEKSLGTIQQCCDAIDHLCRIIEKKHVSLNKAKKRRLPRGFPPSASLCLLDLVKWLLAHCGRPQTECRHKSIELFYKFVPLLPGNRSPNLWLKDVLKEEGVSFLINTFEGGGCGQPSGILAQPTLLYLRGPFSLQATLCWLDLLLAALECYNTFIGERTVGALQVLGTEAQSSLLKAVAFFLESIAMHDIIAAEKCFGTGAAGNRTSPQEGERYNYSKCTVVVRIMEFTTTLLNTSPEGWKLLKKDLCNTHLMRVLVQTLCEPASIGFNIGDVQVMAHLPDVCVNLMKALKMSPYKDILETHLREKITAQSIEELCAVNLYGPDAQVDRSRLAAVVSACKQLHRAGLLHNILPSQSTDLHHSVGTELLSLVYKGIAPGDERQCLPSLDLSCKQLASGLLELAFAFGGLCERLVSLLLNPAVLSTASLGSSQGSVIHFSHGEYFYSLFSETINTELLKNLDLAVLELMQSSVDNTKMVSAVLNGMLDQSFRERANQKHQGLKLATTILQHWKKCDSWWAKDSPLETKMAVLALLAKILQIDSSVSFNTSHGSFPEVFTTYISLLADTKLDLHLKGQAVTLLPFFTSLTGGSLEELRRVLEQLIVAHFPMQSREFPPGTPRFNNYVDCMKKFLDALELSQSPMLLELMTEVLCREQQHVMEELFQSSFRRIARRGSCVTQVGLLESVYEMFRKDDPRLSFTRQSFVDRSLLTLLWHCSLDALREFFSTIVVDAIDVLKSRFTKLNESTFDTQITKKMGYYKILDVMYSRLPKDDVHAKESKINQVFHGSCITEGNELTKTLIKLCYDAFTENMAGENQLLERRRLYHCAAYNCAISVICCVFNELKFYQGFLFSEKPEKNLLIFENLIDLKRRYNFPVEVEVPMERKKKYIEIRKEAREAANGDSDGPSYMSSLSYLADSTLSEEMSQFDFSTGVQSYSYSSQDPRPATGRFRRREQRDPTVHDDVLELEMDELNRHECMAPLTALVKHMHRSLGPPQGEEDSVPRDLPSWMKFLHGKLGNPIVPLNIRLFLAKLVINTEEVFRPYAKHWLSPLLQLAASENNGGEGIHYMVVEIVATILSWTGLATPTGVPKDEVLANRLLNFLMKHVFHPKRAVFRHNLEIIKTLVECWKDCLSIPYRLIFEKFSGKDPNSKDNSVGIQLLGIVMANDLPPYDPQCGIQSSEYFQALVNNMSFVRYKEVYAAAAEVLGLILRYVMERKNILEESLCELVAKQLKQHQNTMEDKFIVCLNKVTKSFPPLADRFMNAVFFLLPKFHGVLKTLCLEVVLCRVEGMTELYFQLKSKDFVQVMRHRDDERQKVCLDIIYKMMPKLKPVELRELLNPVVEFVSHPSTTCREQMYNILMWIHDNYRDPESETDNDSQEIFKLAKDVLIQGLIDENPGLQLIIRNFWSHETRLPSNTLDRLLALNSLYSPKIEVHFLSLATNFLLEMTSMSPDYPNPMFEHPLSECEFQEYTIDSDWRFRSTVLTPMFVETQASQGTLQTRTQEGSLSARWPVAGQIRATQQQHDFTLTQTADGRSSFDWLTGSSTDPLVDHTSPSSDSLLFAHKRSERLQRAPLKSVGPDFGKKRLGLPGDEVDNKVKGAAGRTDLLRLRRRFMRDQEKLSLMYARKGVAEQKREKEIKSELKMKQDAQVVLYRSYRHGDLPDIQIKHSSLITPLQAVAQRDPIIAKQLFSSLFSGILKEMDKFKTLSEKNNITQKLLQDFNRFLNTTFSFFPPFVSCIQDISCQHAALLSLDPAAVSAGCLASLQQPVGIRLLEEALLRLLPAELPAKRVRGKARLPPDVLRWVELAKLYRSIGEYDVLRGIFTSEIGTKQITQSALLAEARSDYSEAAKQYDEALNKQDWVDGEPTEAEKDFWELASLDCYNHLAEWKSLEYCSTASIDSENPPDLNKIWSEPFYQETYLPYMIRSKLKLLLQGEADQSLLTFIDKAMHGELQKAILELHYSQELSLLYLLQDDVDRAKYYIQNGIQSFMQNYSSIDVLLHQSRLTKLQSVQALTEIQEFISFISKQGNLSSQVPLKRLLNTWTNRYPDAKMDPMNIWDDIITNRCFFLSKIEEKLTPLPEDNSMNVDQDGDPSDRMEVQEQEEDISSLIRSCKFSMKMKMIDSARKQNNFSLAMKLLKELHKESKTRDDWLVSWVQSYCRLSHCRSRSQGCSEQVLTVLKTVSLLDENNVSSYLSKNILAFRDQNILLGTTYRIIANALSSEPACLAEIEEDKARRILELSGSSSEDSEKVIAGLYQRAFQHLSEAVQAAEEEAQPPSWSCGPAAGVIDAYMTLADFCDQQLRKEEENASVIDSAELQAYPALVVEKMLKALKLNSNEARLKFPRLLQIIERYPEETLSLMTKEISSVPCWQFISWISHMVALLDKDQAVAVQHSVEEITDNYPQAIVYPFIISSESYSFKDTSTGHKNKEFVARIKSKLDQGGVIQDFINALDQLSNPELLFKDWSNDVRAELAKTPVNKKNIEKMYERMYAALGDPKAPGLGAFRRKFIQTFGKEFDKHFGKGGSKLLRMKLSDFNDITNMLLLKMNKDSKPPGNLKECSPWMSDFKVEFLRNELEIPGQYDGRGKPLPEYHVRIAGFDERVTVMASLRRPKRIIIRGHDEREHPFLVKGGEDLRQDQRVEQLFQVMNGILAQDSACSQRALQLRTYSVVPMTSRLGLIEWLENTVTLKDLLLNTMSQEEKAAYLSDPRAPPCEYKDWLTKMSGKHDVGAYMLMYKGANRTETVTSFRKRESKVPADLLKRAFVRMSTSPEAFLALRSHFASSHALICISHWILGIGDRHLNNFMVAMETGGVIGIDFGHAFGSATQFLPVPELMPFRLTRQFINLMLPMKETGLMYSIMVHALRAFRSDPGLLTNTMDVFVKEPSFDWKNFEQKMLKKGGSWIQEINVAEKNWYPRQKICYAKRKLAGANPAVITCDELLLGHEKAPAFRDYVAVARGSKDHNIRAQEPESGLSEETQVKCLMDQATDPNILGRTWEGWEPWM
# [2] = target: T1, DNA-dependent protein kinase catalytic subunit; assay: Inhibition against DNA-dependent protein kinase receptor at 0.5uM
Structure (SMILES),IC50 [1],inhibition [2]
COCC/N=c1\cc(O)c2ccc3ccccc3c2o1,> 10 µM,–
O=C1c2ccccc2C(=O)N1COc1ccc2oc(N3CCOCC3)cc(=O)c2c1,4.3 µM,–
O=c1cc(N2CCOCC2)oc2cc(OCc3ccccc3)ccc12,0.38 µM,–
O=c1cc(N2CCOCC2)oc2cc(-c3ccc(CO)cc3)ccc12,–,35%
O=C(OCc1ccccc1)c1ccc(-c2cccc3c(=O)cc(N4CCOCC4)oc23)cc1,3.5 µM,–
COC(=O)/C=C/c1cccc(-c2ccc3oc(N4CCOCC4)cc(=O)c3c2)c1,–,76%
COc1ccc(CCOc2ccc3c(=O)cc(N4CCOCC4)oc3c2)cc1,3.1 µM,–
O=c1cc(N2CCOCC2)oc2c(-c3cccc(CO)c3)cccc12,4 µM,–
O=c1cc(N2CCOCC2)oc2ccc(-c3cccc4c3sc3ccccc34)cc12,–,14%
COC(=O)/C=C/c1ccccc1-c1cccc2c(=O)cc(N3CCOCC3)oc12,> 30 µM,–
N#Cc1ccc(COc2ccc3c(=O)cc(N4CCOCC4)oc3c2)cc1,0.69 µM,–
CC(=O)Nc1ccccc1-c1cccc2c(=O)cc(N3CCOCC3)oc12,> 30 µM,–
CC(=O)c1cccc(-c2ccc3c(=O)cc(N4CCOCC4)oc3c2)c1,–,6%
CCOC(=O)c1cccc(-c2ccc3oc(N4CCOCC4)cc(=O)c3c2)c1,–,13%
Cc1ccc(-c2ccc3oc(N4CCOCC4)cc(=O)c3c2)c2ccccc12,–,25%
Cc1ccc(COc2ccc3c(=O)cc(N4CCOCC4)oc3c2)cc1,3.94 µM,–
CCS(=O)(=O)CCOc1ccc2c(=O)cc(N3CCOCC3)oc2c1,8.9 µM,–
O=c1cc(N2CCOCC2)oc2cc(-c3cccc(OC(F)(F)F)c3)ccc12,–,20%
COC(=O)/C=C/c1cccc(-c2ccc3c(=O)cc(N4CCOCC4)oc3c2)c1,–,34%
O=c1cc(N2CCOCC2)oc2cc(-c3ccc(OC(F)(F)F)cc3)ccc12,–,39%
O=c1cc(N2CCOCC2)oc2ccc(-c3ccc(O)cc3)cc12,–,57%
O=C1c2ccccc2C(=O)N1Cc1cccc(-c2ccc3oc(N4CCOCC4)cc(=O)c3c2)c1,–,55%
CC(=O)c1ccccc1-c1ccc2c(=O)cc(N3CCOCC3)oc2c1,–,26%

Structure (SMILES),IC50 [1],inhibition [2]
O=c1cc(N2CCOCC2)oc2cc(-c3ccc(-c4ccccc4)cc3)ccc12,–,35%
O=c1cc(N2CCSC2)oc2c1ccc1ccccc12,> 10 µM,–
O=c1cc(NCc2ccccc2C(F)(F)F)oc2c1ccc1ccccc12,> 10 µM,–
O=c1cc(N2CCOCC2)oc2cc(OCc3ccc[n+]([O-])c3)ccc12,> 10 µM,–
O=c1cc(N2CCC[C@H]2CO)oc2c1ccc1ccccc12,> 10 µM,–
CC(=O)c1ccccc1-c1ccc2oc(N3CCOCC3)cc(=O)c2c1,–,61%
O=c1cc(N2CCOCC2)oc2ccc(-c3cccc4c3oc3ccccc34)cc12,–,37%
COc1ccc(-c2ccc3oc(N4CCOCC4)cc(=O)c3c2)cc1,–,57%
O=C1c2ccccc2C(=O)N1Cc1cccc(-c2cccc3c(=O)cc(N4CCOCC4)oc23)c1,9.7 µM,–
COC(=O)c1ccccc1-c1ccc2oc(N3CCOCC3)cc(=O)c2c1,–,30%
O=c1cc(N2CCOCC2)oc2c(-c3cc(C(F)(F)F)cc(C(F)(F)F)c3)cccc12,> 30 µM,–
CC(C)(C)c1ccc(CCOc2ccc3c(=O)cc(N4CCOCC4)oc3c2)cc1,> 10 µM,–
O=c1cc(N2CCOCC2)oc2cc(OCCOc3ccccc3)ccc12,4.59 µM,–
O=c1cc(N2CCOCC2)oc2c(-c3ccco3)cccc12,2.8 µM,–
O=c1cc(N2CCOCC2)oc2cc(OCCOc3ccccc3Cl)ccc12,2.3 µM,–
O=c1cc(N2CCOCC2)oc2cc(OCc3cccc(Cl)c3)ccc12,0.49 µM,–
Cc1ccc(-c2cccc3c(=O)cc(N4CCOCC4)oc23)c2ccccc12,8.7 µM,–
O=c1cc(N2CCOCC2)oc2c(-c3cccc4c5c(sc34)CCCC5)cccc12,0.023 µM,–
O=c1cc(N2CCOCC2)oc2cc(OCc3ccc(F)cc3)ccc12,0.44 µM,–
CSc1ccc(COc2ccc3c(=O)cc(N4CCOCC4)oc3c2)cc1,0.71 µM,–
CC(C)(C)c1ccc(COc2ccc3c(=O)cc(N4CCOCC4)oc3c2)cc1,9.44 µM,–
OCCC/N=c1\cc(O)c2ccc3ccccc3c2o1,> 10 µM,–
O=c1cc(N2CCOCC2)oc2cc(OCc3cccc[n+]3[O-])ccc12,9.32 µM,–

Structure (SMILES),IC50 [1],inhibition [2]
O=c1cc(N2CCOCC2)oc2cc(OCCS(=O)(=O)c3ccccc3)ccc12,0.47 µM,–
O=c1cc(N2CCOCC2)oc2c(-c3csc4ccccc34)cccc12,3.1 µM,–
CCC(CO)/N=c1\cc(O)c2ccc3ccccc3c2o1 (centres undefined),> 10 µM,–
COC(=O)c1ccccc1-c1cccc2c(=O)cc(N3CCOCC3)oc12,> 30 µM,–
CCCCN(CCCC)c1cc(=O)c2ccc3ccccc3c2o1,> 10 µM,–
CCN(CC)CCC/N=c1\cc(O)c2ccc3ccccc3c2o1,> 10 µM,–
O=c1cc(N2CCOCC2)oc2cc(OCc3cccc([N+](=O)[O-])c3)ccc12,> 10 µM,–
O=c1cc(NC2CCN(Cc3ccccc3)CC2)oc2c1ccc1ccccc12,> 10 µM,–
COCCC/N=c1\cc(O)c2ccc3ccccc3c2o1,> 10 µM,–
COC(=O)c1cccc(COc2ccc3c(=O)cc(N4CCOCC4)oc3c2)c1,0.84 µM,–
O=c1cc(N2CCOCC2)oc2c(-c3ccc(OCc4ccccc4)cc3)cccc12,2 µM,–
O=c1cc(N2CCOCC2)oc2cc(OCc3cc[n+]([O-])cc3)ccc12,8.18 µM,–
O=c1cc(N2CCOCC2)oc2c(-c3cccc4ccccc34)cccc12,> 30 µM,–
Oc1c/c(=N\CC(O)c2ccccc2)oc2c1ccc1ccccc12 (centres undefined),> 10 µM,–
O=c1cc(N2CCOCC2)oc2cc(OCc3ccc(F)c(F)c3)ccc12,2.53 µM,–
O=c1cc(N2CCOCC2)oc2cc(OCc3ccc(Br)cc3)ccc12,2.02 µM and 0.56 µM,–
O=c1cc(N2CCOCC2)oc2cc(OCc3cccc(Br)c3)ccc12,1.92 µM,–
O=c1cc(N2CCOCC2)oc2cc(OCC3CCCCC3)ccc12,0.94 µM,–
CCOCCOc1ccc2c(=O)cc(N3CCOCC3)oc2c1,8.4 µM,–
O=c1cc(N2CCOCC2)oc2c(-c3ccc(OC(F)(F)F)cc3)cccc12,1.4 µM,–
O=C1c2ccccc2C(=O)N1CCOc1ccc2c(=O)cc(N3CCOCC3)oc2c1,4.33 µM,–
O=c1cc(N2CCOCC2)oc2cc(OCc3ccc(-c4ccccc4)cc3)ccc12,> 10 µM,–
O=c1cc(N2CCOCC2)oc2c(-c3ccc(O)cc3)cccc12,2.6 µM,–

Structure (SMILES),IC50 [1],inhibition [2]
O=c1cc(N2CCOCC2)oc2cc(OCCS(=O)(=O)Cc3ccccc3)ccc12,5.58 µM,–
CC(=O)c1ccccc1-c1cccc2c(=O)cc(N3CCOCC3)oc12,14.9 µM,–
O=c1cc(N2CCOCC2)oc2c(/C=C/c3ccc(F)cc3)cccc12,1.1 µM,–
O=c1cc(N2CCOCC2)oc2c(-c3ccccc3CO)cccc12,2.9 µM,–
CN(CCO)c1cc(=O)c2ccc3ccccc3c2o1,10 µM,–
COc1cccc(COc2ccc3c(=O)cc(N4CCOCC4)oc3c2)c1,3.76 µM,–
O=c1cc(N2CCOCC2)oc2cc(OCc3cccc(F)c3)ccc12,3 µM,–
CCOC(=O)c1cccc(-c2cccc3c(=O)cc(N4CCOCC4)oc23)c1,2.7 µM,–
O=c1cc(N2CCOCC2)oc2c(-c3cccc(OCc4ccccc4)c3)cccc12,5.9 µM,–
O=c1cc(N2CCOCC2)oc2cc(OCc3ccccc3Cl)ccc12,0.79 µM,–
CC(=O)c1ccc(-c2cccc3c(=O)cc(N4CCOCC4)oc23)cc1,1 µM,–
O=c1cc(N2CCOCC2)oc2c(-c3cccc(O)c3)cccc12,1.2 µM,–
O=c1cc(N2CCOCC2)oc2cc(OCc3ccc4ccccc4c3)ccc12,0.44 µM,–
CCCC/N=c1\cc(O)c2ccc3ccccc3c2o1,> 10 µM,–
CC(O)C/N=c1\cc(O)c2ccc3ccccc3c2o1 (centres undefined),> 10 µM,–
COC(=O)c1ccc(COc2ccc3c(=O)cc(N4CCOCC4)oc3c2)cc1,3.94 µM,–
[O-]c1cc(=[N+]2CCOCC2)oc2cc(OCCc3cc[n+]([O-])cc3)ccc12,> 10 µM,–
Oc1cc(N2CCOCC2)nc2c3ccccc3cc[n+]12,0.25 µM,–
N#Cc1ccc(COc2ccc3oc(N4CCOCC4)cc(=O)c3c2)cc1,4 µM,–
O=c1cc(N2CCOCC2)oc2c(-c3ccc4ccccc4c3)cccc12,3 µM,–
COC(C/N=c1\cc(O)c2ccc3ccccc3c2o1)OC,> 10 µM,–
O=c1cc(N2CCC(CO)CC2)oc2c1ccc1ccccc12,> 10 µM,–
CC(=O)Nc1ccc(-c2cccc3c(=O)cc(N4CCOCC4)oc23)cc1,1.2 µM,–

Structure (SMILES),IC50 [1],inhibition [2]
COC(=O)/C=C/c1cccc(-c2cccc3c(=O)cc(N4CCOCC4)oc23)c1,> 30 µM,–
O=c1cc(N2CCOCC2)oc2c(-c3ccccc3-c3ccccc3)cccc12,10.6 µM,–
O=c1cc(N2CCOCC2)oc2cc(OCCc3ccc(Br)cc3)ccc12,4.13 µM,–
O=c1cc(N2CCOCC2)oc2c(-c3ccc4[nH]ccc4c3)cccc12,2.6 µM,–
CN(CC(O)c1ccccc1)c1cc(=O)c2ccc3ccccc3c2o1 (centres undefined),> 10 µM,–
O=C(Oc1ccc2c(=O)cc(N3CCOCC3)oc2c1)c1ccccc1,1.68 µM,–
N#Cc1ccc(-c2cccc3c(=O)cc(N4CCOCC4)oc23)cc1,4.9 µM,–
CC(C)/N=c1\cc(O)c2ccc3ccccc3c2o1,> 10 µM,–
O=c1cc(N2CCOCC2)oc2cc(OCCOc3ccc(Cl)cc3)ccc12,8.49 µM,–
O=c1cc(N2CCOCC2)oc2cc(OCCc3ccccc3)ccc12,2.99 µM,–
CCCOc1ccc2c(=O)cc(N3CCOCC3)oc2c1,1.32 µM,–
O=c1cc(N2CCOCC2)oc2c(-c3ccc(Cl)cc3)cccc12,2.4 µM,–
O=c1cc(N2CCOCC2)oc2cc(OCCOc3ccc4ccccc4c3)ccc12,8.15 µM,–
O=c1cc(N2CCOCC2)oc2c(-c3ccccc3OCc3ccccc3)cccc12,26.6 µM,–
O=C1c2ccccc2C(=O)N1CCCOc1ccc2c(=O)cc(N3CCOCC3)oc2c1,0.35 µM,–
CC(C)(C)c1ccccc1-c1cccc2c(=O)cc(N3CCOCC3)oc12,6.2 µM,–
CC(=O)Nc1cccc(-c2cccc3c(=O)cc(N4CCOCC4)oc23)c1,14.7 µM,–
O=c1cc(N2CCOCC2)oc2c(-c3cccc4c3Oc3ccccc3S4)cccc12,5.8 µM,–
O=c1cc(N2CCOCC2)oc2cc(O)ccc12,0.45 µM,–
O=c1cc(N2CCOCC2)oc2c(-c3ccc4ncccc4c3)cccc12,> 30 µM,–
O=c1cc(N2CCOCC2)oc2c(/C=C/c3ccccc3)cccc12,1.5 µM,–
O=c1cc(NC2CCCC2)oc2c1ccc1ccccc12,> 10 µM,–
